According to PMC10303271, “Synthesis and Receptor Binding Studies of α5 GABAAR Selective Novel Imidazodiazepines Targeted for Psychiatric and Cognitive Disorders” (Molecules, 2023):
Where two headings read alike, the source gives them in different places.

Tests used:
HCA2 = biological target: T1, HCA2 (Homo sapiens, UniProt Q8TDS4); test: PDSP primary binding HCA2; settings: primary binding, 10,000 nM; last figure of the line = mean of the 4 before it; read-out: HCA2, PDSP raw data, mean
T1 construct: purchased NIMH Psychoactive Drug Screening Program (PDSP)
T1 sequence (Q8TDS4 whole entry): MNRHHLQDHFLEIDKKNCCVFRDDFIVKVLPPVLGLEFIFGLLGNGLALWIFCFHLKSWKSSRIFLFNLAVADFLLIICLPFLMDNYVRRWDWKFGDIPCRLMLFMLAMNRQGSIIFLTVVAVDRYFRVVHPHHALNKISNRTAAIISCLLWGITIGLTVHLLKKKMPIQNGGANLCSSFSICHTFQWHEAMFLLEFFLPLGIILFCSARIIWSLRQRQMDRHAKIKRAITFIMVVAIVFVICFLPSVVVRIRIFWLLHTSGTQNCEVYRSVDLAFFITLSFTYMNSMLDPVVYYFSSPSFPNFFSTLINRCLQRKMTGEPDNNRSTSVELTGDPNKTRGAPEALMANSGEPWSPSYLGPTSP
Procedure: (§1) To determine if any off-target receptor-binding effects are present, all the novel ligands were sent to the National Institute of Mental Health (NIMH), Psychoactive Drug Screening Program (PDSP). The ligands were screened over a panel of 47 receptors, ion channels, and transporters to determine any other possible interactions with […]. The hERG-binding was also determined. […] No binding of the test compounds to calcium channels was observed. […] It is necessary to screen the compounds for hERG-binding during the early process of drug discovery. The unintentional binding of many drugs to hERG can cause blockade of hERG K+ channels in the heart, which can cause many side effects including cardiac arrhythmias and sudden death. […] All of the α5 imidazodiazepines were tested for hERG-binding.
(§2) The NIMH PDSP assay protocol book [https://kidbdev.med.unc.edu/databases/PDSP%20Protocols%20II%202013-03-28.pdf accessed on 23 April 2023]. describes the protocols for primary and secondary radio-ligand binding assays. These assays were carried out in a final volume of 125 µL per well in the appropriate binding buffer.
(§3) The binding of a ligand to a receptor, ion channel, or transporter was determined in the […] of 10 µM of the appropriate reference compound. […] Plates were incubated in the dark for 90 min at rt, and the reactions were stopped by vacuum filtration onto 0.3% polyethyleneimine (PEI) soaked 96-well filter mats using a 96-well Filtermateharvester. This was followed by three washes with cold PBS buffer. Radioactivity was then counted on a Microbeta counter. Nonlinear regression was used to analyze the data with N = 6 replicates.

Alpha4Beta4 = biological target: T2, Alpha4Beta4 (Rattus norvegicus, UniProt P09483+P12392); test: PDSP primary binding Alpha4Beta4; settings: primary binding, 10,000 nM; last figure of the line = mean of the 4 before it; read-out: Alpha4Beta4, PDSP raw data, mean
T2 construct: purchased NIMH Psychoactive Drug Screening Program (PDSP)
T2 sequence (P09483 31-630): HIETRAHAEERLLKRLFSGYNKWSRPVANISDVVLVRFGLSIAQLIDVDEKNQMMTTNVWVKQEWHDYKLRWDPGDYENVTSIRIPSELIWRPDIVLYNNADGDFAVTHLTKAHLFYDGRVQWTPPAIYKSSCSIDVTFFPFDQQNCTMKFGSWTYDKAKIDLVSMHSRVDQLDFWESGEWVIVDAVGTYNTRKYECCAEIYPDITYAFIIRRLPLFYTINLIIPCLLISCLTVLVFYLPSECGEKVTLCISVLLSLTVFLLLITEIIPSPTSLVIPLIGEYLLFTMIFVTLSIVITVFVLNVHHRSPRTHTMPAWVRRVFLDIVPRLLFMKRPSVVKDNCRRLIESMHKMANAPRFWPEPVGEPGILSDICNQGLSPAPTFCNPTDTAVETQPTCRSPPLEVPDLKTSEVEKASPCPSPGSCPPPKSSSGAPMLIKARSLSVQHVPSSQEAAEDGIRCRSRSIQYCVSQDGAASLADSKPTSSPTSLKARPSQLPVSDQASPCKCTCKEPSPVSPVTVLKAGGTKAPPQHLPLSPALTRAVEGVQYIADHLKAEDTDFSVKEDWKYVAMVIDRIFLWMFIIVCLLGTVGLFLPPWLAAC
T2 sequence (P12392 21-495): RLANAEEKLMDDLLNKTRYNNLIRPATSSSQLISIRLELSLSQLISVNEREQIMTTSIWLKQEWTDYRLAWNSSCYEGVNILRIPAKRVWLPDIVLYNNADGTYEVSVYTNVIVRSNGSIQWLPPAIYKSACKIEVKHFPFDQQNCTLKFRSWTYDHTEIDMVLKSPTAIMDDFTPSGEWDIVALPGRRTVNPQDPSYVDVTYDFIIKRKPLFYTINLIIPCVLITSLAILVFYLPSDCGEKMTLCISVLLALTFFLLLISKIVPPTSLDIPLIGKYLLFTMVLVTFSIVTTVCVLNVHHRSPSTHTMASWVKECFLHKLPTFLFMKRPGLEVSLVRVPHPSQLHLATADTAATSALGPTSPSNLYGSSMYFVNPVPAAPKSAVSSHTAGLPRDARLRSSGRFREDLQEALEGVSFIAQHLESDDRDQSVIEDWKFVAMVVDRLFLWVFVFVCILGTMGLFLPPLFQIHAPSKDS
Procedure: as §1, §2, §3

D3 = biological target: T3, D3 (Homo sapiens, UniProt P35462); test: PDSP primary binding D3; settings: 1.5 h; primary binding, 10,000 nM; last figure of the line = mean of the 4 before it; read-out: D3, PDSP raw data, mean
T3 construct: purchased NIMH Psychoactive Drug Screening Program (PDSP)
T3 sequence (P35462 whole entry): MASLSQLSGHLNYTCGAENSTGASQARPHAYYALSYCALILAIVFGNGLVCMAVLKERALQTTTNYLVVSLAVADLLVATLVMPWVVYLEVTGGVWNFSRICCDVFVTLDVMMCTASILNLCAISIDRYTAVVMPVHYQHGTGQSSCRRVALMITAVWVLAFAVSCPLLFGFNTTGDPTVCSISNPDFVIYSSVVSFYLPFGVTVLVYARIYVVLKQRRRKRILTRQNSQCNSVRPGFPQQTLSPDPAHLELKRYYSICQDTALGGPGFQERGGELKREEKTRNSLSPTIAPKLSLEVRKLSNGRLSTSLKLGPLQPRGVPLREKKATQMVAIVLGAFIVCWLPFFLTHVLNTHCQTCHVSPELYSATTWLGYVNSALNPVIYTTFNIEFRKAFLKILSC
Procedure: as §1, §2, §3

DOR = biological target: T4, DOR (Homo sapiens, UniProt P41143); test: PDSP radioligand binding at DOR
T4 construct: purchased NIMH Psychoactive Drug Screening Program (PDSP)
T4 sequence (P41143 whole entry): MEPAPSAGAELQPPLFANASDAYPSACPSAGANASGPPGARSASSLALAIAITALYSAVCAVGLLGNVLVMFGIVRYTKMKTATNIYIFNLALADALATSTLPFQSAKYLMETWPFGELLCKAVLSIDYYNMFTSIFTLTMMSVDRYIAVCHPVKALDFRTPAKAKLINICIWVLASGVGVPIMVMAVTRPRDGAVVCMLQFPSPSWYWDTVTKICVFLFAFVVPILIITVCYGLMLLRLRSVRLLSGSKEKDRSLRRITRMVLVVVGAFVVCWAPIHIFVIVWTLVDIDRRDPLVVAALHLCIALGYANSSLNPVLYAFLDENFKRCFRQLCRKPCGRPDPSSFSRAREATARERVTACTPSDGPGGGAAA
Source text: Opioid receptors are a family of inhibitory G-coupled protein receptors where opioids act as the ligand. The kappa opioid receptors (KOR), µ and δ opioid receptors (MOR and DOR), and nociception opioid receptor (NOP) fall under the family of opioids receptors. It has been reported that oxadiazole imidazodiazepines can mediate analgesic and anti-inflammatory properties mediated also by the κ opioid receptor (KOR). The binding at KOR is usually silent. The affinities of the test compounds for KOR, DOR, and MOR were determined using radioligand binding assays at a screening concentration of 10,000 nM in collaboration with the National Institute of Mental Health’s Psychoactive Drug Screening Program (PDSP), as mentioned before. Concentration-dependent experiments were conducted to determine Ki values for the compounds that exceeded more than 50% radioligand displacement in primary binding assays.
as §2, §3

H4 = biological target: T5, H4 (Homo sapiens, UniProt Q9H3N8); test: PDSP primary binding H4; settings: primary binding, 10,000 nM; last figure of the line = mean of the 4 before it; read-out: H4, PDSP raw data, mean
T5 construct: purchased NIMH Psychoactive Drug Screening Program (PDSP)
T5 sequence (Q9H3N8 whole entry): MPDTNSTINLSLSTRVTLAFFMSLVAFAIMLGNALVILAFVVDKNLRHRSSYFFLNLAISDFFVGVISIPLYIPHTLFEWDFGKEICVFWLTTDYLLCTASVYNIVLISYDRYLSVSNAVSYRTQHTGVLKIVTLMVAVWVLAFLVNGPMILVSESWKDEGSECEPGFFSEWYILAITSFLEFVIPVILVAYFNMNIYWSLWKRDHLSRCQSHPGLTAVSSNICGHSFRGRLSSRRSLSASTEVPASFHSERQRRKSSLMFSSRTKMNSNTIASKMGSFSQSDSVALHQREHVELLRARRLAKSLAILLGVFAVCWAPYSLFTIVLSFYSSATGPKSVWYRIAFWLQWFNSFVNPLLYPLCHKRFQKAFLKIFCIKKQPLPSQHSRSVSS
Procedure: as §1, §2, §3

Ca channel human = test: PDSP primary binding Ca channel; settings: primary binding, 10,000 nM; last figure of the line = mean of the 4 before it
Procedure: as §1, §2, §3

V2 = biological target: T6, V2 (Homo sapiens, UniProt P30518); test: PDSP primary binding V2; settings: primary binding, 10,000 nM; last figure of the line = mean of the 4 before it; read-out: V2, PDSP raw data, mean
T6 construct: purchased NIMH Psychoactive Drug Screening Program (PDSP)
T6 sequence (P30518 whole entry): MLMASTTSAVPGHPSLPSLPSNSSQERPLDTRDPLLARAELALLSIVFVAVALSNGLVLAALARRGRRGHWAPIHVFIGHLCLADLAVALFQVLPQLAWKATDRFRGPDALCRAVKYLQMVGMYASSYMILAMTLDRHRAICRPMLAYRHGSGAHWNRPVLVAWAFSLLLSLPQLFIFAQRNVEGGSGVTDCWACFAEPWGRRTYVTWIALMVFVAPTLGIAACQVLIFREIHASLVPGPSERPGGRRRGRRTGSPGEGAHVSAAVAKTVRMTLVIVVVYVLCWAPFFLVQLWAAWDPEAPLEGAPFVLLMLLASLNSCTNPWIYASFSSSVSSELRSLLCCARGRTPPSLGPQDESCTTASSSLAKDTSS
Procedure: as §1, §2, §3

Alpha2A = biological target: T7, Alpha2A (Homo sapiens, UniProt P08913); test: PDSP primary binding Alpha2A; settings: 1.5 h; primary binding, 10,000 nM; last figure of the line = mean of the 4 before it; read-out: Alpha2A, PDSP raw data, mean
T7 construct: purchased NIMH Psychoactive Drug Screening Program (PDSP)
T7 sequence (P08913 1-465): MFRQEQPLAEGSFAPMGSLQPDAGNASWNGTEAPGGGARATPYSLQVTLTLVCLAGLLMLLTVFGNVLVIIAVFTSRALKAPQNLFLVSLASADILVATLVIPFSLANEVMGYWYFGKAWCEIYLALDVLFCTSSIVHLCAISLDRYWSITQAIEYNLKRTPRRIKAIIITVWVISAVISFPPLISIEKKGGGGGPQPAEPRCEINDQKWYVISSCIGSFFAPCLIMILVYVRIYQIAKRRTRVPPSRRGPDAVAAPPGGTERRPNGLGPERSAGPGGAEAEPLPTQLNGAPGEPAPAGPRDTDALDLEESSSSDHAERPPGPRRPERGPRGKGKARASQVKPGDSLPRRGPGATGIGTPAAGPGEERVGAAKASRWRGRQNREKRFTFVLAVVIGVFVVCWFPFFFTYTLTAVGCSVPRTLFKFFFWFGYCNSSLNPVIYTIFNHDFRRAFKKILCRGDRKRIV
Procedure: as §1, §2, §3

5-HT1E = biological target: T8, 5-HT1E (Homo sapiens, UniProt P28566); test: PDSP primary binding 5-HT1E; settings: primary binding, 10,000 nM; last figure of the line = mean of the 4 before it
T8 construct: purchased NIMH Psychoactive Drug Screening Program (PDSP)
T8 sequence (P28566 whole entry): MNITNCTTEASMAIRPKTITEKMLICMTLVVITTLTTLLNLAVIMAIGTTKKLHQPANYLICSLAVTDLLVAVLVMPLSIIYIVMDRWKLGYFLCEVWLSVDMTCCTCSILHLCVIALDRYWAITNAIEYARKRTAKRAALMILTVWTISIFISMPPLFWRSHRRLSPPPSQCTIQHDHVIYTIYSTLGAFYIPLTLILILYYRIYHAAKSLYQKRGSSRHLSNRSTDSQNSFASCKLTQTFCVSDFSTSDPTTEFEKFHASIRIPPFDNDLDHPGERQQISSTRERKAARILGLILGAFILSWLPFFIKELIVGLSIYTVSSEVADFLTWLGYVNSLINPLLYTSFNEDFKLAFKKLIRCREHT
Procedure: as §1, §2, §3

5-HT2C = biological target: T9, 5-HT2C (Homo sapiens, UniProt P28335); test: PDSP primary binding 5-HT2C; settings: 1.5 h; primary binding, 10,000 nM; last figure of the line = mean of the 4 before it; read-out: 5-HT2C, PDSP raw data, mean
T9 construct: purchased NIMH Psychoactive Drug Screening Program (PDSP)
T9 sequence (P28335 33-458): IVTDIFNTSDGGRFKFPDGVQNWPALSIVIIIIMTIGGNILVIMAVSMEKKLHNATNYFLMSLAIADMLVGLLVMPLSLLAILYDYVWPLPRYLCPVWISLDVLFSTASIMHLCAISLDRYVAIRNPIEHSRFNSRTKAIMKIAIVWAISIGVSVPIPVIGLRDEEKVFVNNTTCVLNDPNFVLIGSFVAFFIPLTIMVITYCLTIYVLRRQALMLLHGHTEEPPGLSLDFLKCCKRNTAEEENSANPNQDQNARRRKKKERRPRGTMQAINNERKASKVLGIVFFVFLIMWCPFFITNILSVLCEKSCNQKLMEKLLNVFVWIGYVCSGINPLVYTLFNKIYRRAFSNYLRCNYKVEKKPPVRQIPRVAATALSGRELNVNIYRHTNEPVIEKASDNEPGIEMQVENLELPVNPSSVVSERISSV
Procedure: as §1, §2, §3

[1] = at 10,000 nM, N = 5, [3H]-DADLE 2.69 nM, read-out: Primary Binding %DOR
[2] = primary binding, 10,000 nM, last figure of the line = mean of the 4 before it, read-out: DOR, PDSP raw data, mean

`C[C@H]1N=C(c2ccccc2F)c2cc(Cl)ccc2-n2cnc(-c3nc(C4CC4)no3)c21` [Compound 38, (R)-5-(8-Chloro-6-(2′-fluorophenyl)-4-methyl-4H-benzo[f]imidazo[1,5-a][1,4]diazepin-3-yl)-3-cyclopropyl-1,2,4-oxadiazole] was tested, and the inhibition at 10 µM (HCA2) was -1.1%, the inhibition at 10 µM (Alpha4Beta4) was 8.62% and the inhibition at 10 µM (D3) was -0.07%. It also gave an inhibition at 10 µM (DOR; [1]) of 42.8 ± 8.94%, an inhibition at 10 µM (DOR; [2]) of 42.7% and an inhibition at 10 µM (H4) of 5.24%. The “Ca channel human, PDSP raw data, mean” value (Ca channel human) was 30.64%, the inhibition at 10 µM (V2) was 5.48% and the inhibition at 10 µM (Alpha2A) was 15.6%. The “5-HT1E, PDSP raw data, mean” value (5-HT1E) was -22.45% and the inhibition at 10 µM (5-HT2C) was 7.18%.

`CCc1noc(-c2ncn3c2CN=C(c2ccccc2F)c2cc(C4CC4)ccc2-3)n1` [Compound 44, 5-(8-Cyclopropyl-6-(2′-fluorophenyl)-4H-benzo[f]imidazo[1,5-a][1,4]diazepin-3-yl)-3-ethyl-1,2,4-oxadiazole] showed an inhibition at 10 µM (HCA2) of -11.9%, an inhibition at 10 µM (Alpha4Beta4) of 10.6% and an inhibition at 10 µM (D3) of 16.1%. The inhibition at 10 µM (DOR; [1]) was 81.3 ± 4.76%, the inhibition at 10 µM (DOR; [2]) was 81.3% and the inhibition at 10 µM (H4) was 20.6%. The “Ca channel human, PDSP raw data, mean” value (Ca channel human) was 36.68%, the inhibition at 10 µM (V2) was 27.7% and the inhibition at 10 µM (Alpha2A) was 14.4%. The “5-HT1E, PDSP raw data, mean” value (5-HT1E) was 11.75% and the inhibition at 10 µM (5-HT2C) was 24.7%.

Compound `CCc1noc(-c2ncn3c2[C@@H](C)N=C(c2ccccc2F)c2cc(C4CC4)ccc2-3)n1` [Compound 46, (R)-5-(8-Cyclopropyl-6-(2′-fluorophenyl)-4-methyl-4H-benzo[f]imidazo[1,5-a][1,4]diazepin-3-yl)-3-ethyl-1,2,4-oxadiazole] has an inhibition at 10 µM (HCA2) of -17.2%, an inhibition at 10 µM (Alpha4Beta4) of 14.2% and an inhibition at 10 µM (D3) of 27.8%. For the same compound, the inhibition at 10 µM (DOR; [2]) was 67.3%, the inhibition at 10 µM (H4) was 21.7% and the “Ca channel human, PDSP raw data, mean” value (Ca channel human) was 36.53%. For the same compound, the inhibition at 10 µM (V2) was 48.4%, the inhibition at 10 µM (Alpha2A) was 29.2% and the “5-HT1E, PDSP raw data, mean” value (5-HT1E) was -18.76%. It also gave an inhibition at 10 µM (5-HT2C) of 3.53%.
